Reference: ChEMBL document CHEMBL4130400, “Development of GLUT4-selective antagonists for multiple myeloma therapy” (Eur J Med Chem, 2017)
Each block holds one molecule with its values, some of them ahead of it. The source made the active and inactive calls. No cut-off for these calls is given here.

What was measured:
KMS-11 [1] = assay: Antiproliferative activity against human KMS11 cells over-expressing GFP after 72 hrs by CellTiter-Glo assay; format: functional, cell-based; conditions: KMS-11, 72 h
KMS-11 [2] = assay: Cytotoxicity against human KMS11 cells after 72 hrs by AnnexinV/DAPI staining-based flow cytometric analysis; format: functional, cell-based
[3] = target: T1, Solute carrier family 2, facilitated glucose transporter member 4 (Homo sapiens) (UniProt P14672); assay: Antagonist activity at GLUT4 in human JJN3 cells assessed as reduction in [3H]2-deoxy-D-glucose uptake preincubated for 5 to 6 mins followed by [3H]2-deoxy-D-glucose addition measured after 4 to 6 mins; format: cell-based
T1 sequence (whole entry): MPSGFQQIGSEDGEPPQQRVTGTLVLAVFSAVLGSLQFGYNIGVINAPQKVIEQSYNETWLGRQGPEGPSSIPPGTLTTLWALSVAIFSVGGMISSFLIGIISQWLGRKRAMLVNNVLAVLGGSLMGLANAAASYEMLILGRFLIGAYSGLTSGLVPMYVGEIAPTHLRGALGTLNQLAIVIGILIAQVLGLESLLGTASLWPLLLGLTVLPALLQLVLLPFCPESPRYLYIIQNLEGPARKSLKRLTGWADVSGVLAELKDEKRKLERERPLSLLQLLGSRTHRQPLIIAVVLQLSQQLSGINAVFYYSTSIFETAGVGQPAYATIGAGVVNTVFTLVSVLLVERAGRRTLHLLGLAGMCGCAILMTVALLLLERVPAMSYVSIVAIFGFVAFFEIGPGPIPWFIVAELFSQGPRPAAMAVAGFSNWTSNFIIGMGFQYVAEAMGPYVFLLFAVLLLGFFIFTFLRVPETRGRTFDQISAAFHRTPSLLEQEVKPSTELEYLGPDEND

JJN-3 [4] = assay: Inhibition of [3H]2-deoxy-D-glucose uptake in human JJN-3 cells transfected with GLUT4 shRNA preincubated for 5 to 6 mins followed by [3H]2-deoxy-D-glucose addition measured after 4 to 6 mins; format: functional, cell-based
JJN-3 [5] = assay: Antiproliferative activity against human JJN-3 cells transfected with GLUT4 shRNA assessed as growth inhibition at 15 uM aftter 72 hrs by trypan blue dye-based cell counting analysis; format: functional
[6] = target: T2, Solute carrier family 2, facilitated glucose transporter member 1 (Homo sapiens, UniProt P11166); assay: Antagonist activity at human GLUT1 expressed in HEK293 cells transfected with GLUT1 shRNA assessed as inhibition of [3H]2-deoxy-D-glucose uptake preincubated for 5 mins followed by [3H]2-deoxy-D-glucose addition and measured after 6 mins; format: cell-based
T2 sequence (P11166 whole entry): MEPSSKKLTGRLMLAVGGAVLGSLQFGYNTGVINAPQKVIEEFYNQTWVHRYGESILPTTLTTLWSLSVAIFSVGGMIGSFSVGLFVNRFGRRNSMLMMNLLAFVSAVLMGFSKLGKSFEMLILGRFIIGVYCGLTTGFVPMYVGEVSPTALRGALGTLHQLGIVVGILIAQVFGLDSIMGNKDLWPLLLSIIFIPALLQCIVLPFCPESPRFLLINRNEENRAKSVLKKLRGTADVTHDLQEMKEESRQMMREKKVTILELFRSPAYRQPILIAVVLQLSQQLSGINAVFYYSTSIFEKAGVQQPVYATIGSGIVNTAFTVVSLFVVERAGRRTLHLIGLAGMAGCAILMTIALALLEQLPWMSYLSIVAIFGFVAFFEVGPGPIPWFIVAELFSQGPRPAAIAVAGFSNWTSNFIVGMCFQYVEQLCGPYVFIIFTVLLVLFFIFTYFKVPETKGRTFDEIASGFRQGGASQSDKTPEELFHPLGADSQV

[7] = target: T3, Solute carrier family 2, facilitated glucose transporter member 8 (Homo sapiens, UniProt Q9NY64); assay: Antagonist activity at human GLUT8 expressed in HEK293 cells transfected with GLUT1 shRNA assessed as inhibition of [3H]2-deoxy-D-glucose uptake preincubated for 5 mins followed by [3H]2-deoxy-D-glucose addition and measured after 6 mins; format: cell-based
T3 sequence (Q9NY64 whole entry): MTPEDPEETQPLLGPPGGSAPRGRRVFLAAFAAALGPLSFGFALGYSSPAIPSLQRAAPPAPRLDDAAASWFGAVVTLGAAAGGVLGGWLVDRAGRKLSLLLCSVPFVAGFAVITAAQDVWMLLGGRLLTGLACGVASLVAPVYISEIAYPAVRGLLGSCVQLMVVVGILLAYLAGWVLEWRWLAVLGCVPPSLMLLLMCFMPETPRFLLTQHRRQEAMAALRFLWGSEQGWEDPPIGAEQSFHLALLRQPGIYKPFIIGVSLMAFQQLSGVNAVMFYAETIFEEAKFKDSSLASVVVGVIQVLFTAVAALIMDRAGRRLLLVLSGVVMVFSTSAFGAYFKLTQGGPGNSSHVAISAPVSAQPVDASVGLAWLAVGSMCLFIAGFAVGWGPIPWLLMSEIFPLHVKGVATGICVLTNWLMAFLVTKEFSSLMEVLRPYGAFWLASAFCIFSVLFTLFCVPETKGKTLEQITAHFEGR

[8] = target: T4, GLUT1 (solute carrier family 2, facilitated glucose transporter member 1) (Rattus norvegicus, UniProt P11167); assay: Displacement of ATB-BMPA from rat C-terminal 6His/Myc-tagged GLUT1 expressed in HEK293 cell low density microsome assessed as ATB-BMPA binding level at 20 uM preincubated for 10 mins followed by ATB-BMPA addition measured after 10 mins relative to control; format: cell-based; conditions: probe ATB-BMPA, read-out: Activity
T4 sequence (P11167 whole entry): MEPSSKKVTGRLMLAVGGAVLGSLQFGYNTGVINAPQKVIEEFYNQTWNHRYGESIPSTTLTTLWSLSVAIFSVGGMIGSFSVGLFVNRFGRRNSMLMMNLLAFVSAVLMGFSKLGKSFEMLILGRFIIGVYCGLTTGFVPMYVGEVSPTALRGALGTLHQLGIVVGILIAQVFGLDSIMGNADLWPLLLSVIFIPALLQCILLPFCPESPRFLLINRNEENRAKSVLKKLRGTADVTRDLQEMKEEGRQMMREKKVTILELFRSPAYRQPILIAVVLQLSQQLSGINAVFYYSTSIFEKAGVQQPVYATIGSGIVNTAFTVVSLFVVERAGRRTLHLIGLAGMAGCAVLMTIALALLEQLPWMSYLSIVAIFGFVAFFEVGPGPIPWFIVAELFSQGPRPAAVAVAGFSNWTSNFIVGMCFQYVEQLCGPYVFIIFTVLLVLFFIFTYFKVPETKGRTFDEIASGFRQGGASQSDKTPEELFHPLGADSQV

[9] = target: T5, Solute carrier family 2, facilitated glucose transporter member 4 (Rattus norvegicus) (UniProt P19357); assay: Displacement of ATB-BMPA from rat C-terminal 6His/Myc-tagged GLUT4 expressed in HEK293 cell low density microsome assessed as ATB-BMPA binding level at 20 uM preincubated for 10 mins followed by ATB-BMPA addition measured after 10 mins relative to control; format: cell-based
T5 sequence (whole entry): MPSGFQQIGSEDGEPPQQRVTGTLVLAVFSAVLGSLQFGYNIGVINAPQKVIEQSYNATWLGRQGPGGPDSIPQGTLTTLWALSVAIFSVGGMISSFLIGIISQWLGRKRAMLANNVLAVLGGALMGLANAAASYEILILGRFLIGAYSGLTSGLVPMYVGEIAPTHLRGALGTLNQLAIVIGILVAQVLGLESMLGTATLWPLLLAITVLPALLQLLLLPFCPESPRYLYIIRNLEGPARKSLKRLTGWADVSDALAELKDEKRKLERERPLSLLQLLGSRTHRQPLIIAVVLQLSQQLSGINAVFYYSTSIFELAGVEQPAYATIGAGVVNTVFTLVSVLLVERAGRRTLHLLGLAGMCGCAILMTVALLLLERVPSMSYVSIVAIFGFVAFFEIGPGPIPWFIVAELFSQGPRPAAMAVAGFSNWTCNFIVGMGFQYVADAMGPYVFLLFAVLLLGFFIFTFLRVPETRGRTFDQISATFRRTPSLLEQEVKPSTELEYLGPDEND

[10] = target: T1, Solute carrier family 2, facilitated glucose transporter member 4 (Homo sapiens); assay: Antagonist activity at GLUT4 in human L363 cells assessed as reduction in MCL-1 protein expression at 15 uM after 18 hrs by immunoblot analysis; format: cell-based
[11] = target: T1, Solute carrier family 2, facilitated glucose transporter member 4 (Homo sapiens); assay: Antagonist activity at GLUT4 in human JJN-3 cells assessed as reduction in MCL-1 protein expression at 15 uM after 18 hrs by immunoblot analysis; format: cell-based
[12] = target: T1, Solute carrier family 2, facilitated glucose transporter member 4 (Homo sapiens); assay: Antagonist activity at GLUT4 in human […] cells assessed as increase in sensitivity to ABT-199-induced cytotoxicity by measuring cell death at 10 uM after 72 hrs by CellTiter-Glo assay; format: cell-based
[13] = target: T1, Solute carrier family 2, facilitated glucose transporter member 4 (Homo sapiens); assay: Antagonist activity at GLUT4 in human JJN-3 cells assessed as increase in sensitivity to ABT-199-induced cytotoxicity by measuring cell death at 10 uM after 72 hrs by CellTiter-Glo assay; format: cell-based
[14] = target: T1, Solute carrier family 2, facilitated glucose transporter member 4 (Homo sapiens); assay: Antagonist activity at GLUT4 in multiple myeloma patient derived CD38+ and phyocerythrin-negative myeloma cells assessed as increase in sensitivity to ABT-199-induced cytotoxicity by measuring cell death at 10 uM after 48 hrs by CellTiter-Glo assay
[15] = target: T1, Solute carrier family 2, facilitated glucose transporter member 4 (Homo sapiens); assay: Antagonist activity at GLUT4 in human MM1S cells assessed as increase in sensitivity to dexamethasone-induced cytotoxicity by measuring cell death at 10 uM after 72 hrs by CellTiter-Glo assay; format: cell-based
[16] = target: T1, Solute carrier family 2, facilitated glucose transporter member 4 (Homo sapiens); assay: Antagonist activity at GLUT4 in multiple myeloma patient derived CD38+ and phyocerythrin-negative myeloma cells assessed as increase in sensitivity to dexamethasone-induced cytotoxicity by measuring cell death at 10 uM after 48 hrs by CellTiter-Glo assay
Bone marrow cell [17] = assay: Cytotoxicity in multiple myeloma patient derived CD38(-)/CD45(-) non-myeloma bone marrow cells at 10 uM in presence of ABT-199 incubated for 48 hrs by CellTiter-Glo assay; format: cell-based; conditions: human
Bone marrow cell [18] = assay: Cytotoxicity in multiple myeloma patient derived CD38(-)/CD45(-) non-myeloma bone marrow cells at 10 uM in presence of dexamethasone incubated for 48 hrs by CellTiter-Glo assay; format: cell-based; conditions: human
Bone marrow cell [19] = assay: Cytotoxicity in multiple myeloma patient derived CD38(-)/CD45(-) non-myeloma bone marrow cells at 10 uM incubated for 48 hrs by CellTiter-Glo assay; format: cell-based; conditions: human
[20] = target: T1, Solute carrier family 2, facilitated glucose transporter member 4 (Homo sapiens); assay: Antagonist activity at GLUT4 in human MM1S cells assessed as increase in sensitivity to melphalan-induced cytotoxicity by measuring cell death at 10 uM after 72 hrs by CellTiter-Glo assay; format: cell-based
[21] = target: T6, Solute carrier family 2, facilitated glucose transporter member 4 (Homo sapiens, UniProt P14672); assay: Antagonist activity at human GLUT4 expressed in HEK293 cells transfected with GLUT1 shRNA assessed as inhibition of [3H]2-deoxy-D-glucose uptake preincubated for 5 mins followed by [3H]2-deoxy-D-glucose addition and measured after 6 mins; format: cell-based
T6 sequence (P14672 whole entry): T1 sequence (whole entry)

Compound: COc1ccc(C(=O)N(Cc2ccncc2)Cc2cccc(OCc3ccc(F)cc3)c2)cc1
IC50 (KMS-11 [1]): 22.7 µM

Compound: O=C(c1ccc(Cl)cc1)N(Cc1ccncc1)Cc1cccc(OCCc2ccc(F)cc2)c1
IC50 (KMS-11 [1]): 13.1 µM

inhibition [3]: Active
IC50 [6]: > 100 µM
IC50 [7]: > 100 µM
activity at 10 min, 20 µM [8]: 35%
Activity [9]: 64%
inhibition [10]: Active
inhibition [11]: inactive
Compound: COc1ccc(CC(=O)N(Cc2ccncc2)Cc2cccc(OCCc3ccc(F)cc3)c2)cc1
IC50 (KMS-11 [1]): 13.4 µM
Activity (KMS-11 [2]): Active
inhibition (JJN-3 [4]): Active
Activity (JJN-3 [5]): inactive
inhibition [12]: Active
inhibition [13]: Active
inhibition [14]: Active
inhibition [15]: Active
inhibition [16]: Active
Activity (Bone marrow cell [17]): Non-Toxic
Activity (Bone marrow cell [18]): Non-Toxic
Activity (Bone marrow cell [19]): Non-Toxic
Activity [20]: Active

Compound: COc1ccc(C(=O)N(Cc2ccncc2)Cc2cccc(OCC3CCN(C(=O)OC(C)(C)C)CC3)c2)cc1
IC50 (KMS-11 [1]): 5.1 µM

Compound: COc1ccc(C(=O)N(Cc2ccncc2)Cc2cccc(OCc3cccc([N+](=O)[O-])c3)c2)cc1
IC50 (KMS-11 [1]): 19.6 µM

Compound: COc1ccc(C(=O)N(Cc2ccncc2)Cc2cccc(OCC3CCOCC3)c2)cc1
IC50 (KMS-11 [1]): 17.7 µM

Compound: COc1ccc(C(=O)N(Cc2ccncc2)Cc2cccc(OCC3CCCCC3)c2)cc1
IC50 (KMS-11 [1]): 19.7 µM

Compound: COc1ccc(C(=O)N(Cc2ccncc2)Cc2cccc(OCC(=O)c3cccc(Br)c3)c2)cc1
IC50 (KMS-11 [1]): 18.7 µM

IC50 [6]: > 100 µM
IC50 [21]: 20 µM
IC50 [7]: > 100 µM
Compound: Oc1cccc(CNCc2ccncc2)c1
